The values below come from PubChem BioAssay (NCI).

Test systems include BT-549 breast; HT29 colon; MDA-MB-231 breast; MDA-MB-435; NCI-H460 lung; NCI/ADR-RES ovarian; OVCAR-5 ovarian; RPMI-8226 leukemia; SF-268 CNS; SF-539 CNS; SK-MEL-5 melanoma; SK-OV-3 ovarian; SNB-19 CNS; T-47D breast; UACC-62 melanoma; UO-31 renal.
What all share (experiment): NCI tumour cell line growth inhibition, 48 h

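Assay format: 96-well plates, 48-hour exposure. TGI: total growth inhibition.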

Regarding `CC(NC(=O)C(OC(=O)C(C)NC(=O)OC(C)(C)C)C(C)C)C(=O)OC(C(=O)O)C(C)C` (stereo not drawn), the TGI in the assay with BT-549 breast, in the assay on HT29 colon, with MDA-MB-231 breast, in the assay with MDA-MB-435, in the assay with NCI-H460 lung and in the assay on NCI/ADR-RES ovarian was above 100 µM each time. The TGI with OVCAR-5 ovarian, with RPMI-8226 leukemia, in the assay on SF-268 CNS, in the assay on SF-539 CNS, in the assay on SK-MEL-5 melanoma and in the assay on SK-OV-3 ovarian was above 100 µM in each case. Also, the TGI with SNB-19 CNS, in the assay with T-47D breast, in the assay with UACC-62 melanoma and in the assay with UO-31 renal was above 100 µM in each case.

As for `COC(=O)/C=C/c1cnc2c(c1)oc(=O)n2CCc1ccccn1`, the TGI in the assay with BT-549 breast is above 100 µM; with HT29 colon, above 100 µM; with MDA-MB-231 breast it was above 100 µM; in the assay on MDA-MB-435, 89 µM; in the assay with NCI-H460 lung, above 100 µM; in the assay with NCI/ADR-RES ovarian it was above 100 µM. The TGI in the assay on OVCAR-5 ovarian, in the assay with RPMI-8226 leukemia, with SF-268 CNS, with SF-539 CNS, in the assay with SK-MEL-5 melanoma and in the assay on SK-OV-3 ovarian was above 100 µM in each case. Besides, the TGI with SNB-19 CNS, with T-47D breast, in the assay on UACC-62 melanoma and in the assay on UO-31 renal was above 100 µM throughout.

Turning to `CCOC(=O)[C@@H]1C[C@H]1c1ccc(O)c(O)c1`, the TGI in the assay on BT-549 breast is above 100 µM; in the assay on HT29 colon it was above 100 µM; in the assay on MDA-MB-231 breast, 63.1 µM; with MDA-MB-435, above 100 µM; with NCI-H460 lung, above 100 µM; in the assay on NCI/ADR-RES ovarian, above 100 µM. Also, the TGI is above 100 µM in the assay with OVCAR-5 ovarian; above 100 µM with RPMI-8226 leukemia; above 100 µM in the assay with SF-268 CNS; above 100 µM in the assay with SF-539 CNS; 31.3 µM in the assay on SK-MEL-5 melanoma; above 100 µM with SK-OV-3 ovarian. The TGI is above 100 µM in the assay with SNB-19 CNS, 88.1 µM in the assay with T-47D breast, 34.9 µM with UACC-62 melanoma and above 100 µM with UO-31 renal.

With `c1cc(-c2csc(-c3ccsc3)c2)cs1`, the TGI with BT-549 breast, in the assay with HT29 colon, in the assay on MDA-MB-231 breast, in the assay with MDA-MB-435, with NCI-H460 lung and in the assay on NCI/ADR-RES ovarian was above 100 µM throughout. In addition, the TGI in the assay on OVCAR-5 ovarian, in the assay on RPMI-8226 leukemia, with SF-268 CNS, with SF-539 CNS, with SK-MEL-5 melanoma and with SK-OV-3 ovarian was above 100 µM in each case. Also, the TGI with SNB-19 CNS, with T-47D breast, in the assay on UACC-62 melanoma and in the assay on UO-31 renal was above 100 µM in each case.

With `Cc1cc(C)nc(NS(=O)(=O)c2ccc(NN=c3c4ccccc4n(C)c4ccccc34)cc2)n1`, the TGI in the assay on BT-549 breast was above 100 µM; in the assay with HT29 colon, above 100 µM; in the assay with MDA-MB-231 breast it was above 100 µM; in the assay on MDA-MB-435 it was 69.1 µM; in the assay on NCI-H460 lung it was above 100 µM; in the assay on NCI/ADR-RES ovarian, above 100 µM. For the same compound, the TGI is above 100 µM with OVCAR-5 ovarian; above 100 µM in the assay with RPMI-8226 leukemia; above 100 µM in the assay with SF-268 CNS; above 100 µM in the assay with SF-539 CNS; 62.9 µM with SK-MEL-5 melanoma; above 100 µM in the assay with SK-OV-3 ovarian. For the same compound, the TGI is above 100 µM in the assay with SNB-19 CNS, 80.8 µM in the assay on T-47D breast, above 100 µM in the assay on UACC-62 melanoma and 71.7 µM in the assay on UO-31 renal.

For `Clc1cc(OCc2nn3c(Cc4ccccc4)nnc3s2)ccc1OCc1nn2c(Cc3ccccc3)nnc2s1`, the TGI is above 100 µM in the assay on BT-549 breast; above 100 µM in the assay on HT29 colon; 66.8 µM in the assay with MDA-MB-231 breast; above 100 µM with MDA-MB-435; above 100 µM with NCI-H460 lung; above 100 µM in the assay with NCI/ADR-RES ovarian. The TGI in the assay with OVCAR-5 ovarian, with RPMI-8226 leukemia, with SF-268 CNS, in the assay on SF-539 CNS, with SK-MEL-5 melanoma and in the assay on SK-OV-3 ovarian was above 100 µM throughout. The TGI in the assay on SNB-19 CNS was 82.7 µM; with T-47D breast, 79.4 µM; with UACC-62 melanoma it was above 100 µM; in the assay on UO-31 renal, above 100 µM.

On to `O=c1cc(CO)n(CCc2c[nH]c3ccccc23)cc1O`, for which the TGI in the assay on BT-549 breast is above 100 µM; with HT29 colon it was above 100 µM; in the assay with MDA-MB-231 breast, above 100 µM; in the assay with MDA-MB-435, above 100 µM; in the assay with NCI-H460 lung, above 100 µM; in the assay on NCI/ADR-RES ovarian it was 99.6 µM. The TGI is above 100 µM with OVCAR-5 ovarian; above 100 µM in the assay on RPMI-8226 leukemia; 53.2 µM in the assay with SF-268 CNS; above 100 µM in the assay on SF-539 CNS; above 100 µM with SK-MEL-5 melanoma; above 100 µM in the assay on SK-OV-3 ovarian. The TGI in the assay with SNB-19 CNS was above 100 µM; in the assay with T-47D breast, 80.5 µM; with UACC-62 melanoma, above 100 µM; with UO-31 renal, above 100 µM.

Consider `COc1ccc(N)c(C(O)CCNC(C)=O)c1` (stereo not drawn), for which the TGI in the assay on BT-549 breast, in the assay on HT29 colon, in the assay on MDA-MB-231 breast, in the assay on MDA-MB-435, in the assay with NCI-H460 lung and with NCI/ADR-RES ovarian was above 100 µM in each case. The TGI with OVCAR-5 ovarian, in the assay with RPMI-8226 leukemia, in the assay with SF-268 CNS, in the assay with SF-539 CNS, in the assay with SK-MEL-5 melanoma and in the assay with SK-OV-3 ovarian was above 100 µM in each case. For the same compound, the TGI with SNB-19 CNS, in the assay with T-47D breast, in the assay on UACC-62 melanoma and with UO-31 renal was above 100 µM each time.

For the compound `Nc1ccc(-c2ncc3cc(-c4cccc(-c5cc6cnc(-c7ccc(N)cc7)nc6c6ccccc56)c4)c4ccccc4c3n2)cc1`, the TGI with BT-549 breast, in the assay with HT29 colon, with MDA-MB-231 breast, with MDA-MB-435, in the assay on NCI-H460 lung and in the assay with NCI/ADR-RES ovarian was above 100 µM throughout. Moreover, the TGI in the assay on OVCAR-5 ovarian, in the assay on RPMI-8226 leukemia, in the assay with SF-268 CNS, in the assay with SF-539 CNS, in the assay on SK-MEL-5 melanoma and in the assay on SK-OV-3 ovarian was above 100 µM in each case. Moreover, the TGI in the assay on SNB-19 CNS, in the assay on T-47D breast, in the assay on UACC-62 melanoma and in the assay with UO-31 renal was above 100 µM in each case.

In the case of `COc1ccc(OC)c([N+](=O)[O-])c1-c1nc2sccn2c1/C=N/N=C(N)N`, the TGI in the assay on BT-549 breast, in the assay with HT29 colon, with MDA-MB-231 breast, in the assay on MDA-MB-435, with NCI-H460 lung and in the assay on NCI/ADR-RES ovarian was above 100 µM in each case. Also, the TGI in the assay on OVCAR-5 ovarian, with RPMI-8226 leukemia, with SF-268 CNS, in the assay with SF-539 CNS, in the assay with SK-MEL-5 melanoma and in the assay on SK-OV-3 ovarian was above 100 µM in each case. In addition, the TGI in the assay with SNB-19 CNS, in the assay on T-47D breast, with UACC-62 melanoma and in the assay on UO-31 renal was above 100 µM each time.

In the case of `C[n+]1noc(/N=N\[O-])c1-c1cc(-c2c(/N=N\[O-])on[n+]2C)cc(-c2c(/N=N/[O-])on[n+]2C)c1`, the TGI in the assay on BT-549 breast, in the assay on HT29 colon, in the assay on MDA-MB-231 breast, in the assay on MDA-MB-435, in the assay on NCI-H460 lung and in the assay with NCI/ADR-RES ovarian was above 100 µM each time. The TGI with OVCAR-5 ovarian, in the assay with RPMI-8226 leukemia, in the assay on SF-268 CNS, in the assay on SF-539 CNS, in the assay with SK-MEL-5 melanoma and in the assay with SK-OV-3 ovarian was above 100 µM in each case. The TGI in the assay with SNB-19 CNS, in the assay on T-47D breast, with UACC-62 melanoma and in the assay with UO-31 renal was above 100 µM in each case.

`CC1CC(C)[C@H](O)C([C@H](O)CC2CC(=O)N(C)C(=O)C2)C1` (stereo partly drawn): the TGI in the assay with BT-549 breast, in the assay with HT29 colon, with MDA-MB-231 breast, with MDA-MB-435, in the assay on NCI-H460 lung and in the assay with NCI/ADR-RES ovarian was above 100 µM throughout. Moreover, the TGI in the assay on OVCAR-5 ovarian, in the assay with RPMI-8226 leukemia, in the assay with SF-268 CNS, with SF-539 CNS, in the assay on SK-MEL-5 melanoma and with SK-OV-3 ovarian was above 100 µM throughout. The TGI in the assay on SNB-19 CNS, in the assay with T-47D breast, with UACC-62 melanoma and with UO-31 renal was above 100 µM each time.

For the compound `O[C@@]1(c2cccs2)c2cccc(Cl)c2[C@](O)(c2cccs2)c2cccc(Cl)c21`, the TGI in the assay on BT-549 breast was 48.1 µM; in the assay with HT29 colon, 35.5 µM; with MDA-MB-231 breast, 71 µM; in the assay on MDA-MB-435 it was 35 µM; in the assay with NCI-H460 lung it was 34.2 µM; with NCI/ADR-RES ovarian, above 100 µM. The TGI was 37.6 µM in the assay on OVCAR-5 ovarian; 66.2 µM with RPMI-8226 leukemia; 66.8 µM in the assay with SF-268 CNS; above 100 µM with SF-539 CNS; 34.7 µM in the assay on SK-MEL-5 melanoma; 74.2 µM in the assay with SK-OV-3 ovarian. Also, the TGI with SNB-19 CNS was 80.3 µM; in the assay with T-47D breast, above 100 µM; in the assay on UACC-62 melanoma it was 23.8 µM; with UO-31 renal, above 100 µM.
